# Earlier results, collected in patent US6436435B1, “Liposome formulation of 5 β steroids” (Super Gen, Inc., priority 1995, dated 2002).
# B1: OB protein: protein product of the recombinant gene ob in mice and its human homologue (protein, UniProt P41160 22-167, looked up)
# Leptin: VPIQKVQDDTKTLIKTIVTRINDISHTQSVSAKQRVTGLDFIPGLHPILSLSKMDQTLAVYQQVLTSLPSQNVLQIANDLENLRDLLHLLAFSKSCSLPQTSGLQKPESLDGVLEASLYSTEVVALSRLQGSLQDILQQLDVSPEC
# How the values were obtained:
# [1] = system: genetically obese and diabetic mice; conditions: maximal benefit when ingested
# genetically obese mice = conditions: variety of routes
# [2] = system: severely diabetic mammals; conditions: oral administration
# [3] = system: individuals suffering from Prader-Willi Syndrome; conditions: in vivo
# [4] = system: C57BL/KsJ-db/db diabetic mice; conditions: for effectiveness in preventing development of diabetes relative to DHEA: C57BL/KsJ-db/db diabetic mice; for blood sugar / plasma insulin concentrations: mouse, in vivo
# [5] = system: diabetic genetically obese mice; conditions: supplied in the diet
# obese mice = conditions: injected im, ip or iv / parenteral
# [6] = system: congenitally obese mice carrying the ob ob mutation
molecule,measurement,setting,value
"C[C@]12CC[C@H](O)CC1=CC[C@@H]1[C@@H]2CC[C@]2(C)C(=O)CC[C@@H]12 [DHEA, 3-β-hydroxy-androst-5-en-17-one]",development of diabetes,[1],markedly reduced the development of diabetes
same,rate of weight gain,genetically obese mice,decreased the rate of weight gain
same,glucose tolerance,[2],improved glucose tolerance
same,hyperglycemia,[2],restored hyperglycemia to normal levels
"C[C@]12CCC(=O)C[C@H]1CC[C@@H]1[C@@H]2CC[C@]2(C)C(=O)CC[C@@H]12 [ED, 5β-androstane-3,17-dione]",body weight in Prader-Willi Syndrome,[3],either weight loss or a decrease in the rate of weight gain
same,subjective or objective side effects,oral ED four grams per day,no significant subjective or objective side effects
same,weight loss per week per 100 kilograms of body fat,oral ED four grams per day,0.5±0.91 kilograms per week per 100 kilograms of body fat
same,mean weight loss during ED administration,"oral ED four grams per day, 10 week period, 14 obese subjects",2.8±5.5 kilograms
same,"mean fat loss, of the initial body fat content",over the 10 week period of ED administration,about 5%
C[C@]12CC[C@@H](O)C[C@@H]1CC[C@@H]1[C@@H]2CC[C@]2(C)C(=O)CC[C@@H]12 [androsterone],effectiveness in preventing development of diabetes relative to DHEA,[4],not
C[C@]12CC[C@H](O)C[C@@H]1CC[C@@H]1[C@@H]2CC[C@]2(C)C(=O)CC[C@@H]12 [epiandrosterone],effectiveness in preventing development of diabetes relative to DHEA,[4],not
C[C@]12CC[C@@H](O)C[C@H]1CC[C@@H]1[C@@H]2CC[C@]2(C)C(=O)CC[C@@H]12 [etiocholanolone],body weight in Prader-Willi Syndrome,[3],either weight loss or a decrease in the rate of weight gain
"C[C@]12CC[C@@H](O)C[C@H]1CC[C@@H]1[C@@H]2CC[C@]2(C)C(=O)CC[C@@H]12 [α ET, 3α-hydroxy-5β-androstane-17-one]",effectiveness in preventing development of diabetes relative to DHEA,[4],four times more effective than DHEA
same,blood sugar,[4],reduce blood sugar
same,plasma insulin concentrations,[4],increased plasma insulin concentrations
same,anti-obesity properties,[5],can prevent and arrest the development of obesity
same,"anti-obesity effect, injected",obese mice,does not exert an anti-obesity effect
"C[C@]12CC[C@H](O)C[C@H]1CC[C@@H]1[C@@H]2CC[C@]2(C)C(=O)CC[C@@H]12 [β ET, 3β-hydroxy-5β-androstane-17-one]",effectiveness in preventing development of diabetes relative to DHEA,[4],four times more effective than DHEA
same,blood sugar,[4],reduce blood sugar
same,plasma insulin concentrations,[4],increased plasma insulin concentrations
same,anti-obesity properties,[5],can prevent and arrest the development of obesity
same,"anti-obesity effect, injected",obese mice,does not exert an anti-obesity effect
B1,serum insulin and glucose levels,"[6]; highest dose tested, 10 mg/kg per day",normalized to the level typically seen in the non-mutant mice
same,body weight effect,[6]; parenteral administration,weight reducing effects
